Measured values published in patent US11940441B2, “Low shear microfluidic devices and methods of use and manufacturing thereof” (President and Fellows of Harvard College, priority 2013, dated 2024).

Experiments:
Format in all cases: cell-based, human
[1] = system: neutrophil adhesion to activated endothelium; assay: Neutrophil capture and adhesion in COPD epithelium-microvascular endothelium co-culture device after poly (I:C); settings: budesonide 10 nM or PFI-2 500 nM; poly (I:C) 10 μg/ml for 6 h; compared with no treatment
Excerpt: FIGS. 28A-28C show capability of determining drug efficacy on neutrophil capture and adhesion and inflammation suppression in a small airway mimicking device according to one or more embodiments described herein. (FIG. 28A) Representative immunofluorescence images showing adhesion of recruited neutrophils under three different conditions: (left) no drug; (middle) budesonide; (right) PFI-2. Neutrophils were stained with Hoechst immediately prior to experiment to allow visualization and quantification. (FIG. 28B) Bar graph showing percentage change in neutrophil adhesion to activated endothelium as imaged in FIG. 28A. (n=3 different donors per condition; 7-8 devices per condition from 4 independent experiments; 4-5 distinct fields per chip). […] Cytokines measured include: neutrophil-attractant IL-8, GROα, and GM-CSF, monocyte-chemoattractant MCP-1, and acute inflammation associated cytokine IL-6. […]
COPD epithelium-microvascular endothelium co-culture devices were established, e.g., as described in Example 1 or 2, and then were either treated with the corticosteroid drug budesonide (10 nM) or PFI-2 (a bromodomain-containing protein 4 (BRD4) inhibitor drug; 500 nM), or left untreated. […] Neutrophils were stained with Hoechst immediately prior to experiment to allow visualization and quantification. […]
Effects of budesonide and PFI-2 on neutrophil adhesion were quantified.

[2] = system: COPD epithelium-microvascular endothelium co-culture; assay: Inflammatory cytokine secretion from the microvascular channel of COPD co-culture devices (Multiplex Cytokine Detection System); settings: budesonide 10 nM or PFI-2 500 nM, poly (I:C) 10 μg/ml 6 h
Excerpt: FIGS. 28A-28C show capability of determining drug efficacy on neutrophil capture and adhesion and inflammation suppression in a small airway mimicking device according to one or more embodiments described herein. (FIG. 28A) Representative immunofluorescence images showing adhesion of recruited neutrophils under three different conditions: (left) no drug; (middle) budesonide; (right) PFI-2. Neutrophils were stained with Hoechst immediately prior to experiment to allow visualization and quantification. (FIG. 28B) Bar graph showing percentage change in neutrophil adhesion to activated endothelium as imaged in FIG. 28A. (n=3 different donors per condition; 7-8 devices per condition from 4 independent experiments; 4-5 distinct fields per chip). (FIG. 28C) A set of bar graphs showing levels of different cytokine secretion modulated by the indicated drug or under no treatment. Cytokines measured include: neutrophil-attractant IL-8, GROα, and GM-CSF, monocyte-chemoattractant MCP-1, and acute inflammation associated cytokine IL-6. (n=3 donors per condition).
COPD epithelium-microvascular endothelium co-culture devices were established, e.g., as described in Example 1 or 2, and then were either treated with the corticosteroid drug budesonide (10 nM) or PFI-2 (a bromodomain-containing protein 4 (BRD4) inhibitor drug; 500 nM), or left untreated. The COPD epithelium was then stimulated with poly (I:C) 10 μg/ml via the “airway lumen” channel for 6 h and then examined for adhesion of recruited neutrophils. Neutrophils were stained with Hoechst immediately prior to experiment to allow visualization and quantification. Representative immunofluorescence images of the three conditions are illustrated in FIG. 28A.
To compare the ability of budesonide and PFI-2 in suppressing inflammatory cytokine secretion, secreted cytokines from the “microvascular” channel of the co-culture devices were also analyzed by Multiplex Cytokine Detection System prior to neutrophil recruitment assay.

[3] = system: differentiated airway cells; assay: IL-13 induced asthma-like phenotype in the airway-on-a-chip
Excerpt: FIGS. 30A-30D show induction of asthma-like phenotype in the airway-on-a-chip for assessment of drug efficacy. […] FIG. 30B is a bar graph showing quantification of globet cell coverage based on the fluorescent images (representative images shown in FIG. 30A). FIG. 30C is a set of bar graphs showing secretion of G-CSF and GM-CSF by IL-13 stimulated cells, as compared to cells without IL-13 stimulation. FIG. 30D is a bar graph showing cilia beating frequency under indicated conditions. In FIGS. 30B-30D, the “airway” devices were also used to assess the drug efficacy of Tofacitinib, a JAK inhibitor, by treating the IL-13 stimulated cells with Tofacitinib, and measuring each phenotype as described above accordingly.
To develop asthma-like phenotype in the devices described herein, airway cells were differentiated in the devices, e.g., using the methods as described in Example 1 or 2, and then stimulated with IL-13 to induce asthma-like phenotype in the devices. IL-13 is a protein secreted by immune cells which is found in high quantities in lungs of asthmatics.
The “airway” devices were then used to assess the drug efficacy of Tofacitinib, a JAK inhibitor.

[4] = system: COPD and healthy differentiated epithelial cells; assay: Cytokine response of differentiated COPD and healthy epithelia to TLR stimulation in the device; settings: for IL8 secretion: LPS stimulation; for M-CSF secretion: poly(I:C) stimulation
Excerpt: FIGS. 26A-26E are data graphs showing COPD disease phenotype can be established in the device according to one or more embodiments described herein. […] FIG. 26B compares IL-8 secretion between COPD and healthy epithelia after LPS (lipopolysaccharides) stimulation. FIG. 26C compares M-CSF secretion between COPD and healthy epithelia after […] (polyinosinic:polycytidylic acid) stimulation.
It was next sought to determine cytokine production in response to TLR stimulation. Cytokines are molecules that are involved in inflammation and their generation can be modulated by TLR activation. After the well-differentiated (i.e. mucociliary) epithelium (normal and COPD-derived) was stimulated with lipopolysaccharides (LPS), a qPCR was performed on the cells to compare inflammatory response between COPD and healthy epithelia in the devices described herein. LPS is a bacterial derived molecule that stimulates TLR4. […] This is in line with clinical reports and other ex vivo observations that COPD patients are hyper-reactive inflammation-wise and produce more pro-inflammatory mediators. […] M-CSF is a cytokine that promotes survival and differentiations of a subset of immune cells, e.g., macrophages, in our bodies. This agrees with general observations that in the lungs of COPD patients there is generally an increased number of macrophages as compared to the number of macrophages in healthy individuals.

[5] = system: pulmonary microvascular endothelial cells; assay: Cell adhesion molecule gene expression in endothelial cells after apical poly (I:C) challenge of co-cultured epithelium; settings: apical poly (I:C) 10 μg/ml for 6 h, compared to cells without challenge
Excerpt: FIGS. 27A-27C show establishment of a three-cell type microfluidic co-culture system comprising ciliated epithelium, endothelium and circulating leukocytes. (FIG. 27A) Left panel: a 3D cross-sectional diagram of one embodiment of the devices described herein used to re-create post-capillary venules (major sites of leukocyte recruitment and adhesion in vivo). Middle panel: a schematic diagram showing a 3-cell type co-culture of epithelium, endothelium and neutrophils (all primary cells). Right panel: vertical immunofluorescence cross-section of ciliated epithelium and endothelium bilayer on-device. Ciliated cells were labeled for β-tubulin IV and endothelial cells were stained with anti-CD31/PECAM-1 antibody. Nuclei were counterstained with DAPI. Scale bar, 20 μm. […] Following initial attachment the neutrophil crawled over apical surface of activated endothelium and then firmly adhered (times indicated in seconds). Neutrophils and endothelial cells had been live stained with CellTracker Red and Calcein AM, respectively. (FIG. 27C) Bar graphs showing E-selectin and VCAM1 mRNA levels in endothelia cells upon treatment of differentiated epithelial cells with or without poly (I:C). (3 devices per condition were used) […]

[6] = system: differentiated airway epithelial cells; assay: Infection response of differentiated airway epithelial cells to TLR-3 ligand poly I:C in the device
Experimental: FIGS. 11A-11D illustrate an exemplary method of evaluating an infection response of differentiated small airway epithelial cells and optionally immune cells in a device in accordance with an embodiment, and experimental data resulting therefrom. FIG. 11A is a schematic diagram illustrating an example method to evaluate an infection response in the device. Primary small airway epithelial cells were seeded on the membrane in the mesochannel (an “airway lumen” channel) for differentiation into ciliated and/or mucus-secreting cells following the differentiation method as described in FIG. 5A. Upon differentiation of the airway epithelial cells, another surface of the membrane (facing the microchannel, the “blood vessel” channel) could be seeded with or without endothelial cells. The differentiated cells in the mesochannel were then challenged with a toll-like receptor 3 (TLR-3) ligand poly I:C to induce inflammation. A fluid comprising immune cells (e.g., human monocytes) was introduced into the “blood vessel” channel, either with a static fluid or a flowing fluid, to determine effects of TLR-3-induced inflammation on cytokine/chemokine profiles of the differentiated cells and/or recruitment of immune cells (e.g., monocytes and/or neutrophils). […] FIG. 11C is a set of data showing quantification of monocytes attached to the TLR-3 activated differentiated epithelial cells in the device and the associated fluorescent images. FIG. 11D is a graph showing gene expression of differentiated epithelial cells after treatment with or without a TLR-3 ligand poly I:C.
By way of example only, FIGS. 11A-11D illustrate the capability of using one embodiment of the device described herein to model a bacterial/viral infection. […] Cytokines or chemokines secreted into the fluid flowing in the mesochannel and/or microchannel can be measured by collecting from the outlet an aliquot of the fluid exiting the mesochannel and/or microchannel, which is then subjected to cytokine/chemokine expression analyses.

[7] = drug treatment of IL-13 stimulated cultures
[8] = IL-13 stimulation compared to cells without IL-13 stimulation
[9] = healthy donor and COPD epithelial cells, poly (I:C) stimulation

## Cl.O=C([C@@H](Cc1cccc(C(F)(F)F)c1)NS(=O)(=O)c1cc(F)c2c(c1)CCNC2)N1CCCC1 [PFI-2]
[1]
  neutrophil recruitment / adhesion to activated endothelium: significantly lowered
[2]
  secretion of GM-CSF: significantly lowered
  secretion of GROα: significantly lowered
  secretion of IL-6: significantly lowered
  secretion of IL-8: significantly lowered
  secretion of MCP-1: significantly lowered

## C[C@@H]1CCN(C(=O)CC#N)C[C@@H]1N(C)c1ncnc2[nH]ccc12 [Tofacitinib]
[3]; [7]
  G-CSF secretion: decrease GM-CSF and G-CSF secretion
  GM-CSF secretion: decrease GM-CSF and G-CSF secretion
  cilia beating frequency: increase cilia beating frequency
  number of goblet cells: decrease the number of goblet cells

## IL-13: a protein secreted by immune cells which is found in high quantities in lungs of asthmatics
[3]; [8]
  cilia beating frequency: lower cilia beating frequency
  number of goblet cells: higher number of goblet cells
  secretion of G-CSF: higher secretion
  secretion of GM-CSF: higher secretion

## lipopolysaccharides [LPS]
[4]; COPD epithelial cells
  IL8 secretion: selectively induced
[4]; healthy epithelial cells
  IL8 secretion: without increasing

## polyinosinic:polycytidylic acid [poly (I:C)]
[4]; COPD epithelial cells
  M-CSF secretion: selectively up-regulated
[4]; [9]
  expression of IP-10: induced in both healthy donor and COPD epithelial cells
  expression of RANTES: induced in both healthy donor and COPD epithelial cells
[4]; healthy epithelial cells
  M-CSF secretion: no significant change
[5]
  E-selectin gene expression in endothelial cells: significant up-regulation
  VCAM-1 transcript levels in endothelial cells: higher, but not statistically significant
[6]; TLR-3 activation of differentiated airway epithelial cells
  release of chemokines (monocyte and neutrophil chemoattractants): stimulates release of chemokines
[6]; TLR-3 stimulation
  monocyte adhesion to differentiated epithelial cells: enhances monocyte adhesion
[6]; differentiated epithelial cells with or without poly I:C
  epithelial cells' gene expression of IP-10: significantly increases
